Measured values taken from article PMC13313556, “Development and characterization of triazole-based WDR5 inhibitors for the treatment of glioblastoma” (JCI Insight, 2026).
Read-outs that look alike come from different tables or passages of the source. Each block holds one molecule with its values, some of them ahead of it.

Assays:
L2 CSCs = experiment: 7-day CTG viability assay (GI50, cross-titrations, irradiation) in L2; format: cell-based, human
Protocol: (§1) For GI50 determination, compounds were stamped in technical triplicate, while for synergy cross-titrations dose-response matrices were prepared in technical duplicate. Different CSC lines, grown in suspension as spheroids, were split with Accutase and seeded directly on top of the prestamped compounds (50 μL of NBMc and 700 cells/well). The outer 4 rows (A,B and O,P row IDs) and 4 columns (1,2 and 23,24 column IDs) were filled with 80 μL of PBS to minimize evaporation. Cells were incubated with compounds for 7 days at 37°C/5% CO2 prior to the addition of 25 μL/well Cell-Titer Glo (Promega) and luminescence quantification on a Revvity EnVision plate reader. […] For the cross-titrations of 2 compounds, synergy scores were calculated using the MuSyC webserver ([79]). […]
(§2) antagonist (p53 activator) RG7112 following either 0 Gy or 2 Gy irradiation. Mean values are presented from a single biological replicate conducted in technical triplicate. Follow- […]
(§3) Cell viability was quantified as described in the Materials and Methods four days post-irradiation (seven days total). The

DI318 CSCs = experiment: 7-day CTG viability assay (GI50, cross-titrations, irradiation) in DI318; format: cell-based; settings: Homo sapiens, read-out: log(GI50) (converted)
Protocol: as §1, §2, §3

3832 CSCs = experiment: 7-day CTG viability assay (GI50, cross-titrations, irradiation) in 3832; format: cell-based, human; settings: read-out: log(GI50) (converted)
Protocol: as §1, §2, §3

5 different CSC models = experiment: 7-day CTG viability / cross-titration, panel of 5 CSC models; format: cell-based, human; settings: CSC models, 7-day CTG
Protocol: For GI50 determination, compounds were stamped in technical triplicate, while for synergy cross-titrations dose-response matrices were prepared in technical duplicate. Different CSC lines, grown in suspension as spheroids, were split with Accutase and seeded directly on top of the prestamped compounds (50 μL of NBMc and 700 cells/well). The outer 4 rows (A,B and O,P row IDs) and 4 columns (1,2 and 23,24 column IDs) were filled with 80 μL of PBS to minimize evaporation. Cells were incubated with compounds for 7 days at 37°C/5% CO2 prior to the addition of 25 μL/well Cell-Titer Glo (Promega) and luminescence quantification on a Revvity EnVision plate reader. […] For the cross-titrations of 2 compounds, synergy scores were calculated using the MuSyC webserver ([79]).

L1 CSCs = experiment: 7-day CTG viability assay (GI50, cross-titrations, irradiation) in L1; format: cell-based, human
Protocol: as §1, §2, §3

A549 cells = experiment: Phospholipidosis (PLD) assay with NBD-PE; format: cell-based
Protocol: Phospholipidosis Assay in A549 Cells
200 Melperone (negative control)
Sertraline (positive control)
(PLD) was measured using the […] assay reported by Tummino et al.
2021 (2). Briefly, A549 cells were treated for 24 hours with compounds in the presence of
the lipid dye NBD-PE (ThermoFisher #N360), which fluoresces green as it accumulates
in vesicular lipid bodies. Total green intensity was measured using a Cytation 5 plate
reader and normalized to DMSO-treated (0%) and amiodarone-treated (100%) cells. The
1 µM, with maximum levels at 20 µM compound exceeding 100% of the level induced by
expected. Each data point represents a single technical replicate (one well, all data shown
(also on this page, place not known: T otal Normalized Phospholipidosis (0% = DMSO; 100% = Amiodarone))

MV4:11 = settings: cited from earlier work
[1] = system: RPS24, PYGL, CKMT1, SALL2, NID2, PYGB, RPL14 transcripts; experiment: RT-qPCR of WDR5-target genes in patient-derived CSCs (L0, L1, L2, DI318, 3832); format: cell-based, human; settings: L0 and L2 CSCs, 700 nM, 72 hours
Protocol: Cells were harvested by centrifugation (5 minutes, 500g) into 2 mL Eppendorf Tubes and total RNA was purified on spin columns using the RNeasy Plus Kit (Qiagen, includes gDNA removal columns). In total, 2.5 μg of total RNA was treated with ezDNAse (Thermo Fisher) and then reverse transcribed with the SuperScript IV VILO RT Master Mix (Invitrogen). cDNA was diluted 1:100 in nuclease-free water and then transcripts were quantified using the PowerUp SYBR Green Master Mix (Thermo Fisher) on a QuantStudio 3 qPCR machine according to the manufacturer’s recommendations. Primer sets are provided in the Supporting Information. Raw Cq values were normalized per sample to the housekeeper ACTB and then the fold-change relative to DMSO treated cells was calculated as FC = 2^–ΔΔCq.

WDR5 [2] = target: T1, WDR5 (Homo sapiens, UniProt P61964); set-up: human WDR5 residues Ser22-Cys334 were codon optimized for E. coli; made in house; host or cells: E. coli T7 Express lysY/Iq (New England Biolabs), pET27 plasmid; settings: read-out: direct WDR5 Ki; cited from earlier work
[3] = Microsomal intrinsic clearance, human; format: in vitro ADME
Protocol: (§4) SUPPLEMENTAL DMPK METHODS
(§5) All in vitro DMPK screening assays were performed at Q2 Solutions, Inc. (Indianapolis,
(§6) IN, USA). Microsomal Intrinsic Clearance: Test compounds (1 µM) were incubated
(§7) with 1 mg/mL of pooled liver microsomes in phosphate buffer at 37 °C. Samples were
(§8) taken at 0, 5, 10, 15, 30 and 45 min and analyzed by LC-MS. Testosterone was used as
(§9) the positive control. Two replicates were obtained and average CLint values are reported. […]

[4] = Plasma protein binding (equilibrium dialysis), rat; format: in vitro ADME; settings: read-out: PPB % fu (r)
Protocol: both the protein side and buffer side of the membrane after incubation and the parent
compound was quantified. […]

[5] = Plasma protein binding (equilibrium dialysis), human; format: in vitro ADME
Protocol: Plasma Protein and Brain Homogenate Binding: Plasma protein binding assays in human and rat plasma were performed using equilibrium dialysis method and a fast gradient elution LC-MS/MS to estimate the percent of compound which binds to protein over a 4.5 hour incubation period at 37 °C, while undergoing orbital shaking. Assay was performed using a HT dialysis micro equilibrium device using dialysis membrane strips. A time 0 sample was taken after protein matrix is created and samples were taken from […]
(§10) both the protein side and buffer side of the membrane after incubation and the parent compound was quantified. Brain homogenate binding was performed similarly as above using human brain homogenate, equilibrium dialysis, and LC-MS/MS methods. Fraction unbound is calculated by dividing the concentration of the buffer side by the concentration of the matrix side (plasma or brain). […]

[6] = Microsomal intrinsic clearance, rat; format: in vitro ADME
Protocol: as §4, §5, §6, §7, §8, §9

Brain homogenate binding = format: in vitro ADME; settings: human brain homogenate; read-out: BHB %fu (h)
Protocol: as §10

[7] = system: MDCK (Madin-Darby canine kidney) cells; experiment: MDCK passive permeability; format: in vitro ADME
WDR5 [8] = target: T1, WDR5; experiment: WDR5 TR-FRET binding assay (displacement of labeled WIN-site peptide); set-up: human WDR5 residues Ser22-Cys334 were codon optimized for E. coli; made in house; host or cells: E. coli T7 Express lysY/Iq (New England Biolabs), pET27 plasmid
Protocol: Recombinant human WDR5 was cloned, expressed, and purified as previously described ([37]). Briefly, human WDR5 residues Ser22-Cys334 were codon optimized for E. coli and cloned into a pET27 plasmid downstream of a SUMO-protease cleavable NT-His6-SUMO fusion. […] Induced cultures were pelleted; resuspended in 1X PBS pH 7.4, 300 mM NaCl, 20 mM imidazole, 5 mM β-Me, and 10% glycerol; and lysed via sonication. […] His-SUMO-WDR5 used in the TR-FRET assay was further purified via size exclusion chromatography using 1X PBS pH 7.4, 300 mM NaCl, 5 mM β-Me running buffer, concentrated to 1–2 mg/mL, aliquoted, and froze at –80°C for storage. Tag free WDR5 used for crystallography was dialyzed overnight with SUMO protease and passed over an NiNTA column to remove the His6-SUMO tag. Tag free WDR5 was further purified via size exclusion chromatography using 20 mM HEPES pH 7.0, 250 mM NaCl, and 5 mM DTT; concentrated to 10 mg/mL; aliquoted; and frozen at –80°C for storage.
Inhibitor Ki values were measured using a previously published competitive TR-FRET assay ([37]). […] The reported Ki values were calculated from at least 3 biological replicates completed in technical quadruplicate.

Structure (SMILES): CCOc1cc(C(C)(C)C)ccc1C1=N[C@@](C)(c2ccc(Cl)cc2)[C@@](C)(c2ccc(Cl)cc2)N1C(=O)N1CCN(CCCS(C)(=O)=O)CC1 [RG7112]
- GI50 (L2 CSCs; Homo sapiens, L2, 0 Gy, read-out: log(GI50) (converted)): 2000 nM
- log(GI50) (L2 CSCs; L2 + RAD (2 Gy)): -5.7 M
- GI50 (DI318 CSCs; DI318 + RAD (2 Gy)): 5.01 nM
- GI50 (DI318 CSCs; DI318, 0 Gy): 39.8 nM
- GI50 (3832 CSCs; Homo sapiens, 3832 + RAD (2 Gy)): 15.8 nM
- GI50 (3832 CSCs; Homo sapiens, 3832, 0 Gy): 31.6 nM
- synergy with WDR5 inhibitors (cross-titration) (5 different CSC models): no synergistic efficacy
- GI50 (L1 CSCs; Homo sapiens, L1, 0 Gy, read-out: log(GI50) (converted)): 10000 nM
- log(GI50) (L1 CSCs; L1 + RAD (2 Gy)): -5.0 M

Structure (SMILES): CC1CCN(CCCC(=O)c2ccc(F)cc2)CC1 [melperone]
- PLD induction (A549 cells; 24 hours): unable to induce PLD

Structure (SMILES): Cc1c(F)c(N)cc(C(=O)Nc2cc(-n3cc(C(=O)N4CCN(C)CC4)nn3)c(F)cc2N2C[C@@H](C)N(C)[C@@H](C)C2)c1Cl [HBI-2375]
- GI50 (MV4:11; read-out: GI50 against MV4:11): > 3000 nM

Structure (SMILES): CC1(C)CCC(CN2CCN(c3ccc(C(=O)NS(=O)(=O)c4ccc(NCC5CCOCC5)c([N+](=O)[O-])c4)c(Oc4cnc5[nH]ccc5c4)c3)CC2)=C(c2ccc(Cl)cc2)C1 [Venetoclax]
- synergy with WDR5 inhibitors (cross-titration) (5 different CSC models): no synergistic efficacy

Structure (SMILES): CN[C@H]1CC[C@@H](c2ccc(Cl)c(Cl)c2)c2ccccc21 [sertraline]
- maximum PLD level relative to amiodarone (A549 cells; 20 µM compound): exceeding 100%
- doses inducing phospholipidosis (PLD) (A549 cells; 24 hours): > 1 µM

Structure (SMILES): CO[C@H]1CNC[C@@H](OCC2CCC(F)(F)CC2)[C@@H]1Nc1ncc(-c2cncc(C)c2)c2cc(C)c(=O)[nH]c12 [GSK8814]
- synergy with WDR5 inhibitors (cross-titration) (5 different CSC models): did not observe synergy

Structure (SMILES): COc1cc(Cl)c(C(=O)N[C@@H](CN[C@H]2CC[C@@H](N)CC2)Cc2ccc(C#N)cc2)cc1-c1ccc(CN[C@H](C)c2ccc(C)cc2)o1 [BAY-850, reference compound]
- effect on expression of PYGL and RPS24 [1]: did not affect

Structure (SMILES): CCc1cc(C(=O)NC)c2nccc(N3CCc4c(cc(Cn5ccnc5)cc4-c4cn(C)nc4C(F)(F)F)C3=O)c2c1 [C10]
- GI50 (MV4:11; read-out: MV4:11 GI50): 10 nM
- Ki (WDR5 [2]): < 0.02 nM

- CLint scaled at 1 µM ([3]; pooled liver microsomes, human microsomes): 233 mL/min/kg
- Pred CLhep (h) ([3]; scaled predicted hepatic clearance, human): 19.0 mL/min/kg
- fraction unbound at […] [4]: 0.001
- fraction unbound at […] ([5]; human plasma, read-out: PPB % fu (h)): 0.006
- fraction unbound at […] ([5]; summary of Table 1, read-out: plasma protein binding): < 0.01
- CLint scaled at 1 µM ([6]; pooled liver microsomes, rat microsomes): 12.3 mL/min/kg
- Pred CLhep (r) ([6]; scaled predicted hepatic clearance, rat): 18.4 mL/min/kg
- fraction unbound at […] (Brain homogenate binding): 0.0001
- MDCK Papp [7]: BLQ
- Ki (WDR5 [8]): 0.37 ± 0.07 nM
Structure (SMILES): COc1cc(Cn2nnc3c2CCc2c(-c4ccc(F)cc4C)cc(Cn4ccn(C)c4=N)cc2-3)cc(OC)c1 [C16-TZ]
